In patent US11419913B2, “Pharmaceutical compositions for inhibiting inflammatory cytokines” (S.I.S. SHULOV INNOVATIVE SCIENCE LTD., priority 2018, dated 2022):
“Also recorded” adds a separate entry of the source. Marks after values point to notes of the source that are not given here. Where a SMILES comes first, the peptide text is derived from it. [ ]: non-standard residue; d: D form. The star is where a group is joined. pGlu = O=C1CC[C@@H](C(=O)O)N1; Octanoyl = CCCCCCCC(=O)*

Tests used:
[1] = system: TNF alpha; test: Expression of TNF alpha by B6 macrophage cells treated with LPS and palmitic acid; format: cell-based, mouse
Method: Macrophages originating from C57BL/6 mice were cultured at a density of 200,000 cells/mL in a 24-well plate (500 μl wells) and incubated at 37° C. and 5% CO2 overnight. Following incubation, culture media in certain experimental groups were replaced with fresh media containing 100 ng/mL LPS, followed by three hours incubation. Then, the media (LPS-containing or LPS-free) in certain experimental groups were replaced with fresh media containing ZEP4 at concentrations ranging from 3.125 to 100 μg/ml, followed by one-hour incubation. Next, palmitic acid (PA, 200 μM) was added to the appropriate wells and the plates were incubated for additional 24 hours, then the amount of TNF alpha in each well was measured. Reduction in TNF alpha production in the treatment groups was calculated relative to cells treated with LPS and PA (CLP200).
Macrophages originating from C57BL/6 mice were cultured at a density of 200,000 cells/mL in a 24-well plate (500 μl wells) and incubated at 37° C. and 5% CO2 overnight. Following incubation, media were replaced with fresh media containing 100 ng/mL LPS, followed by three hours incubation. The LPS-containing media in the treatment groups were then replaced with fresh media containing ZEP4 at 50 μg/ml, followed by one-hour incubation. Then, aliquots of palmitic acid (100, 200 or 400 μM) were added to appropriate wells. The plates were incubated for additional 24 hour and the amount of TNF alpha in each well was measured. Reduction in TNF alpha production in the treatment groups was calculated relative to cells treated with LPS and PA, according to the PA concentration.
Macrophage cells originating from C57BL/6 mice were cultured at a density of 200,000 cells/mL in a 24-well plate (500 μl wells) and incubated at 37° C. and 5% CO2 overnight. Following incubation, media in certain experimental groups were replaced with fresh media containing 100 ng/mL LPS, followed by three hours incubation. Then, the media (LPS-containing or LPS-free) in certain experimental groups were replaced with fresh media containing ZEP3 at a concentration ranging from 3.125 to 100 μg/ml, followed by one-hour incubation. Next, palmitic acid (200 μM) aliquots were added to the appropriate wells and the plates were incubated for additional 24 hours, then the amount of TNF alpha in each well was measured. Reduction in TNF alpha production in the treatment groups was calculated relative to cells treated with LPS and PA.

[2] = system: oxazolone-induced atopic dermatitis (AD) mouse models; test: Oxazolone-induced atopic dermatitis mouse model, clinical lesions; format: in vivo; details: for Scaling: period of reduction: 1% cream topical, 50 mg/kg, scaling score of back skin; for Right ear thickness, significant difference in comparison to control: days 20, 22 and 28; for Erythema scoring: days with a significant difference / total score: days with significant difference: vs control group
Method: The effect of topical administration of ZEP3 (SEQ ID NO: 1), and its sodium salt form (ZEP3Na), and ZEP4 (SEQ ID NO: 2) was evaluated in oxazolone-induced atopic dermatitis (AD) mouse models. This model is widely used and well described in literature (Avci et al. 2013 Expert Opin Drug Discov. 8, 331-355; Petersen T. K. 2006, Basic Clin. Pharmacol. Toxicol. 99, 104-115) as an accepted animal model for evaluating drugs for AD therapy in humans.

[3] = system: B6 Macrophage cells; test: Viability of macrophages activated by LPS and palmitic acid (LDH Cytotoxicity Assay Kit); format: cell-based, mouse; details: ZEP3 50 μg/ml, LPS 100 ng/ml; for OD (LDH Cytotoxicity Assay): 24 hours
Method: Macrophages originating from C57BL/6 mice were cultured at a density of 200,000 cells/mL in a 24-well plate (500 μl well) and incubated at 37° C. and 5% CO2 overnight. Following the overnight incubation, media were replaced with fresh media containing 100 ng/mL LPS, followed by three hours incubation. The LPS-containing media in the treatment groups were then replaced with fresh media containing ZEP3 at concentration of 50 μg/ml, followed by one-hour incubation. Next, palmitic acid (100, 200 or 400 μM) was added to the appropriate wells. The plates were incubated for additional 24 hours and the viability of cells was estimated using an LDH Cytotoxicity Assay Kit.

[4] = system: TNF alpha; test: TNF alpha secretion in LPS treated human keratinocytes (ELISA); format: cell-based; details: for TNF alpha levels / production in LPS treated human keratinocytes (in words): compared with cells stimulated with LPS alone; for TNFα: ZEP3Na without DMSO; for Fold Change: refers to TNF-α concentration in sample #2; for % Inhibition: vs corresponding control group without peptide
Method: Methods: SCCE020 cells (EpiGRO™ Human Epidermal Keratinocytes) were grown in complete growth medium (EpiGRO™ Human Keratinocytes Complete Medium; Millipore Cat. #SCMK001) for 4 passages. At passage 5, cells were seeded (3*10^5 cells/well) in triplicates in a volume of 1 ml complete growth medium per well. Additional 3 control wells contained only medium without cells. Upon adherence, cell medium was replaced by basal medium containing L-Glutamine without supplements (starvation medium) and cells were starved overnight. The next day, 24 hours after seeding, the cells were treated with ZEP3 or ZEP3Na or appropriate diluent (PBS or DMSO). After 4 hours of incubation, LPS (from E. Coli 055: B5; Sigma Cat. #L6529-1MG) was added to the wells in final concentration of 20 or 30 μg/ml.
Cells were incubated for 24 hours in tissue culture incubator. After collecting cell supernatants from all wells, cells from treatment groups: 1, 2, 3, 8, 9, 10, 13, 14 (without DMSO groups) were pelleted and stored at −80° C. for further analyses. The cells were collected from as following: upon supernatants collection, the wells were rinsed with trypsin, then incubated with trypsin until they detached from the plate surface, centrifuged, washed with PBS and stored as a cell pellet. TNF-α concentration in the supernatants was measured by ELISA (Quantikine HS ELISA; R&D Systems Cat. #HSTA00D), in 5 replicates.
TNF alpha concentration in the samples was calculated according to the standard curve trend line equation: =0.063x+0.1718. Percent inhibition of TNF alpha production was calculated in each treatment group in comparison to the corresponding control group (same conditions, without peptide).

[5] = Oxazolone-induced atopic dermatitis mouse model, tolerability and bodyweights; details: for tolerability: 50 mg/kg topical to atopic dermatitis induced mice; for Bodyweights in comparison to the excipient: day 8 to day 28
Method: Method: Animals were sensitized by topical administration of oxazolone 2% in ethanol on the back at Day 0 after shaving and depilation of the animals (sensitization phase). Then a challenge was performed one week later by topical administration of oxazolone 1% in ethanol on the back and on right ear every 2 days at 10 occasions namely for total 3 weeks. The tested compounds were applied during the challenge phase every 2 days via the topical route as ready to use cream formulations. The surface of application was the same as for challenge (back+ear). 100 μL were deposited on the back and the back was smoothly massaged. Then, remaining formulation on finger glove was deposited on the internal face of the ear. Every other day, back skin and ears thickness were measured using caliper; and the following clinical scores were recorded from back skin: erythema and scaling. Animals were also weighed every other day (approximate bodyweights of a mouse at startup is about 20 g).
The formulations used for topical administration of the tested compound were: ZEP3 1% cream having pH 7.1 and comprising: Propylene glycol, Polysorbate 80, Edetate Disodium, Silicon dioxide (syloid), Methylparaben, White petrolatum, Isopropyl Myristate, Cetyl Alcohol and Glyceryl Monostearate. ZEP3Na 1% cream having pH 8.0 and comprising: Propylene glycol, Polysorbate 80, Edetate Disodium, Silicon dioxide (syloid), Methylparaben, White petrolatum, Isopropyl Myristate, Cetyl Alcohol and Glyceryl Monostearate. ZEP4 1% cream having pH 4.5 and comprising: Propylene glycol, Glycerin, Polysorbate 80, EDTA Disodium, Xanthan Gum, Silicon dioxide (syloid), Methylparaben, White petrolatum, Isopropyl Myristate, Cetyl Alcohol, Stearyl Alcohol, and Glyceryl Monostearate (kolliwax).

[6] = peptide 3.125 μg/ml, LPS 100 ng/mL, palmitic acid 200 μM, 24 hours
[7] = peptide 3.125 μg/ml, LPS 100 ng/mL, palmitic acid 200 μM, relative to cells treated with LPS and PA
[8] = peptide 6.25 μg/ml, LPS 100 ng/mL, palmitic acid 200 μM, 24 hours
[9] = peptide 6.25 μg/ml, LPS 100 ng/mL, palmitic acid 200 μM, relative to cells treated with LPS and PA
[10] = peptide 12.5 μg/ml, LPS 100 ng/mL, palmitic acid 200 μM, 24 hours
[11] = peptide 12.5 μg/ml, LPS 100 ng/mL, palmitic acid 200 μM, relative to cells treated with LPS and PA
[12] = peptide 25 μg/ml, LPS 100 ng/mL, palmitic acid 200 μM, 24 hours
[13] = peptide 25 μg/ml, LPS 100 ng/mL, palmitic acid 200 μM, relative to cells treated with LPS and PA
[14] = peptide 50 μg/ml, LPS 100 ng/mL, palmitic acid 200 μM, 24 hours
[15] = peptide 50 μg/ml, LPS 100 ng/mL, palmitic acid 200 μM, relative to cells treated with LPS and PA
[16] = peptide 100 μg/ml, LPS 100 ng/mL, palmitic acid 200 μM, 24 hours
[17] = peptide 100 μg/ml, LPS 100 ng/mL, palmitic acid 200 μM, relative to cells treated with LPS and PA
[18] = peptide control: peptide 100 μg/ml, no LPS, no palmitic acid
[19] = peptide 0.2 mg/ml, LPS 20 μg/ml
[20] = peptide 0.2 mg/ml, LPS 30 μg/ml
[21] = peptide 0.4 mg/ml, LPS 20 μg/ml

In the case of `CCCCCCCC(=O)NCCCC[C@H](NC(=O)[C@H](Cc1c[nH]c2ccccc12)NC(=O)[C@H](CC(N)=O)NC(=O)[C@@H]1CCC(=O)N1)C(=O)O` [ZEP3, pGlu-Asn-Trp-Lys(Octanoyl)-OH] ([pGlu]NWK(Octanoyl)-OH), the “ED50 (reduction of TNF alpha expression)” value ([1]; macrophage cells treated with LPS 100 ng/mL and palmitic acid 200 μM, estimated) is reported as 51.94 µg/mL, the TNF alpha [1, 6] is reported as 41.98 pg/mL and the “% reduction of TNF alpha” value [1, 7] is reported as 82.9%. For the same compound, the TNF alpha [1, 8] was 75.52 pg/mL, the “% reduction of TNF alpha” value [1, 9] was 69.2% and the TNF alpha [1, 10] was 74.83 pg/mL. The “% reduction of TNF alpha” value [1, 11] was 69.5%, the TNF alpha [1, 12] was 61.57 pg/mL and the “% reduction of TNF alpha” value [1, 13] was 74.9%. The TNF alpha [1, 14] was 106.75 pg/mL, the “% reduction of TNF alpha” value [1, 15] was 56.4% and the TNF alpha [1, 16] was 176.22 pg/mL. For the same compound, the “% reduction of TNF alpha” value [1, 17] was 28.1%, the TNF alpha [1, 18] was 10.44 pg/mL and the “Scaling: period of reduction” value [2] was “reduced from days 18 to 24”. For the same compound, the “Significant difference on back thickness vs. control group 1” value ([2]; day 20) was −25.5%, the “Significant difference on back thickness vs. control group 1” value ([2]; day 24) was −16.6% and the “Right ear thickness, significant difference in comparison to control” value [2] was −10.1 to −18.0%. For the same compound, the “Erythema scoring: days with a significant difference” value [2] was “days 22 and 24”, the “total score: days with significant difference” value [2] was “days 20, 24 and 28” and the “OD (LDH Cytotoxicity Assay)” value ([3]; palmitic acid 100 μM) was 1.437. The “OD (LDH Cytotoxicity Assay)” value ([3]; palmitic acid 200 μM) was 1.496, the “OD (LDH Cytotoxicity Assay)” value ([3]; palmitic acid 400 μM) was 1.6095 and the “effect on the viability of inflammation-induced macrophage cells” value ([3]; palmitic acid 100, 200 or 400 μM) was “no significant effect”. The “TNF alpha levels / production in LPS treated human keratinocytes (in words)” value [4] was “effectively diminished; also recorded: dose dependent inhibition”, the TNFα ([4]; peptide 0.02 mg/ml, LPS 20 μg/ml, ZEP3 in 0.025% DMSO) was 9.6 pg/mL and the “Fold Change” value ([4]; peptide 0.02 mg/ml, LPS 20 μg/ml) was 3.4. The TNFα ([4]; peptide 0.2 mg/ml, LPS 20 μg/ml, ZEP3 in 0.05% DMSO) was 6.0 pg/mL, the “Fold Change” value [4, 19] was 2.1 and the “% Inhibition” value [4, 19] was 32%. For the same compound, the TNFα ([4]; peptide 0.2 mg/ml, LPS 30 μg/ml, ZEP3 in 0.10% DMSO) was 17.3 pg/mL, the “Fold Change” value [4, 20] was 6.1 and the “% Inhibition” value [4, 20] was 20%. For the same compound, the TNFα ([4]; peptide 0.4 mg/ml, LPS 20 μg/ml, ZEP3 in 0.10% DMSO) was 4.6 pg/mL, the “Fold Change” value [4, 21] was 1.6 and the “% Inhibition” value [4, 21] was 48%. The tolerability [5] was “well tolerated” and the “Bodyweights in comparison to the excipient” value [5] was “behaved normally”.

In the case of `C[C@@H](O)[C@H](NC(=O)[C@H](Cc1c[nH]c2ccccc12)NC(=O)[C@H](CC(N)=O)NC(=O)[C@@H]1CCC(=O)N1)C(=O)O` [ZEP4, pGlu-Asn-Trp-Thr-OH] (HELM PEPTIDE1{[Glp].N.W.T}$$$$V2.0), the TNF alpha ([1]; Table 2: ZEP4 50 μg/ml, LPS 100 ng/ml, palmitic acid 100 μM) is reported as 133.93 pg/mL, the “% reduction of TNF alpha” value ([1]; Table 2: ZEP4 50 μg/ml, LPS 100 ng/ml, palmitic acid 100 μM, relative to LPS and PA 100 μM) is reported as 67.8**** % and the TNF alpha ([1]; Table 2: ZEP4 50 μg/ml, LPS 100 ng/ml, palmitic acid 200 μM) is reported as 167.52 pg/mL. The “% reduction of TNF alpha” value ([1]; Table 2: ZEP4 50 μg/ml, LPS 100 ng/ml, palmitic acid 200 μM, relative to LPS and PA 200 μM) was 63.7**** %, the TNF alpha ([1]; Table 2: ZEP4 50 μg/ml, LPS 100 ng/ml, palmitic acid 400 μM) was 252.177 pg/mL and the “% reduction of TNF alpha” value ([1]; Table 2: ZEP4 50 μg/ml, LPS 100 ng/ml, palmitic acid 400 μM, relative to LPS and PA 400 μM) was 57.5**** %. The TNF alpha [1, 6] was 97.79 pg/mL, the “% reduction of TNF alpha” value [1, 7] was 70.6% and the TNF alpha [1, 8] was 89.83 pg/mL. The “% reduction of TNF alpha” value [1, 9] was 73.0%, the TNF alpha [1, 10] was 93.12 pg/mL and the “% reduction of TNF alpha” value [1, 11] was 72.0%. For the same compound, the TNF alpha [1, 12] was 115.58 pg/mL, the “% reduction of TNF alpha” value [1, 13] was 65.2% and the TNF alpha [1, 14] was 76.23 pg/mL. The “% reduction of TNF alpha” value [1, 15] was 77.0%, the TNF alpha [1, 16] was 211.68 pg/mL and the “% reduction of TNF alpha” value [1, 17] was 36.3%. The TNF alpha [1, 18] was 0 pg/mL, the “Scaling: period of reduction” value [2] was “from days 14 to 24” and the “Significant difference on back thickness vs. control group 1” value ([2]; day 14) was −13.5%. For the same compound, the “Right ear thickness, significant difference in comparison to control” value [2] was −12.3 to −16.0%, the “Erythema scoring: days with a significant difference” value [2] was “days 12, 16, 22 and 24” and the “total score: days with significant difference” value [2] was “days 12-20, 24 and 28”. For the same compound, the “TNF alpha levels / production in LPS treated human keratinocytes (in words)” value [4] was “effectively diminished”, the tolerability [5] was “well tolerated” and the “Bodyweights in comparison to the excipient” value [5] was “behaved normally”.
